Test results published in patent US7994185B2, “Benzene sulfonamide thiazole and oxazole compounds” (Glaxo Smith Kline LLC, priority 2008, dated 2011).
pIC50: −log10 of the molar value. Read-outs that look alike come from different tables or passages of the source.

Key:
[1] = tested on: Human melanoma cancer cells (SK-MEL-28); assay: Cell growth inhibition assay (CellTiter-Glo), SK-MEL-28; type: cell-based
[2] = target: T1, BRAFV600E full-length (amino acids 2-766) (Homo sapiens, UniProt P15056, V600E); assay: B-Raf Accelerated MEK ATPase assay (BRAMA); type: biochemical; conditions: for IC50: Table 1b, read-out: B-Raf pIC50 (converted)
T1 construct: His6-tagged BRAFV600E full-length (amino acids 2-766); His6; made in house; host or cells: baculovirus expression system (insect cells)
T1 sequence (P15056 2-766 V600E): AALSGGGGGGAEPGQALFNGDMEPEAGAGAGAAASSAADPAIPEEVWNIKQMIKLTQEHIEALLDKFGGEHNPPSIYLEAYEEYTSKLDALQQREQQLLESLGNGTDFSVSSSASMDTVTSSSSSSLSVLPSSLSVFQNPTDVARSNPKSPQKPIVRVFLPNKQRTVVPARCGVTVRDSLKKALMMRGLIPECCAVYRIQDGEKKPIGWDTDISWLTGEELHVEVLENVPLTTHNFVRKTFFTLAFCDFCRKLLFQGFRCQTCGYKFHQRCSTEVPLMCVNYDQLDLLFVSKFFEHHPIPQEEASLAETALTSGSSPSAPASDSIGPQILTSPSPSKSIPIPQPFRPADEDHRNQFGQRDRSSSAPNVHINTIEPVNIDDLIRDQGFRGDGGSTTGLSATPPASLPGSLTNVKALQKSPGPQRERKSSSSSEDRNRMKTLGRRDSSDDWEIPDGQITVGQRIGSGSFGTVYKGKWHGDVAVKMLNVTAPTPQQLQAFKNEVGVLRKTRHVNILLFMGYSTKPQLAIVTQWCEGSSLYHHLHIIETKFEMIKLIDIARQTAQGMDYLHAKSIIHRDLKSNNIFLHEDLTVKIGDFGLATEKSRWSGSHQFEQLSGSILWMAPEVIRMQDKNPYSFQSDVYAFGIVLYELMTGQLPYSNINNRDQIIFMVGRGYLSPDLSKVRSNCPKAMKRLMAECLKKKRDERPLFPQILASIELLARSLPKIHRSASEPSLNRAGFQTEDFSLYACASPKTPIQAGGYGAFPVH
Method in brief: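 Coupled-enzyme readout: ADP generated by MEK-mediated ATP hydrolysis, uncoupled from ERK phosphorylation, is linked to NADH oxidation through pyruvate kinase and lactate dehydrogenase.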

[3] = tested on: Human colon tumor cells (Colo205); assay: Cell growth inhibition assay (CellTiter-Glo), Colo205; type: cell-based
Method in brief: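 Read-out was CellTiter-Glo luminescence (total ATP as a cell-number surrogate), expressed as % inhibition against DMSO vehicle wells. Before that, cells grown in RPMI/10% FBS were treated for 3 days at 37 °C with ten 1:3-spaced compound concentrations, final DMSO 0.2%.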

[4] = SK-MEL-28, 72 h, Table 3a, 3 days incubation, read-out: Activity in SK-MEL-28 Tumor Cells
[5] = SK-MEL-28, Table 3b, later runs, average for the one or more runs, categorized, read-out: IC50 for SK-MEL-28
[6] = B-Raf Activity, Table 1a, highest pIC50 for the one or more runs, categorized
[7] = B-Raf pIC50, Table 1b, later runs, average pIC50 for the one or more runs, categorized
[8] = COLO 205, 72 h, Table 2a, 3 days incubation, read-out: Activity in Colo205 Tumor Cells
[9] = COLO 205, Table 2b, later runs, average for the one or more runs, categorized, read-out: IC50 for Colo205
[10] = later runs, average pIC50 for the one or more runs, categorized

Structure (SMILES)	pIC50 [1, 4]	pIC50 [1, 5]	pIC50 [2, 6]	pIC50 [2, 7]	pIC50 [3, 8]	pIC50 [3, 9]	IC50 [2, 10] [nM]	pIC50 [2]
CC(C)c1nc(-c2cccc(NS(=O)(=O)c3cccnc3)c2)c(-c2ccnc(NCCS(C)(=O)=O)n2)s1 [Example 33, N-{3-[2-(1-Methylethyl)-5-(2-{[2-(methylsulfonyl)ethyl]amino}-4-pyrimidinyl)-1,3-thiazol-4-yl]phenyl}-3-pyridinesulfonamide]	> 7.00	> 7.00	> 7.00	≥ 8.50	> 7.00	> 7.00	–	–
CC(C)c1nc(-c2ccc(F)c(NS(=O)(=O)c3cc(F)ccc3F)c2)c(-c2ccnc(NCC3CCN(S(C)(=O)=O)CC3)n2)s1 [Example 129]	6.00 to 7.00	6.00 to 7.00	> 7.00	–	6.00 to 7.00	6.00 to 7.00	3.16 to 31.6	–
COc1ccc(F)cc1S(=O)(=O)Nc1cccc(-c2nc(C(C)C)sc2-c2ccnc(NCC(C)C)n2)c1F [Example 152]	> 7.00	> 7.00	> 7.00	–	> 7.00	> 7.00	3.16 to 31.6	–
CC(C)CNc1nccc(-c2sc(N(C)C)nc2-c2cccc(NS(=O)(=O)c3c(F)cccc3F)c2)n1 [Example 113, N-[3-(2-(Dimethylamino)-5-{2-[(2-methylpropyl)amino]-4-pyrimidinyl}-1,3-thiazol-4-yl)phenyl]-2,6-difluorobenzenesulfonamide]	–	6.00 to 7.00	> 7.00	6.00 to 7.50	–	6.00 to 7.00	–	–
Nc1nccc(-c2sc(C3CCC3)nc2-c2cccc(NS(=O)(=O)c3c(F)cccc3F)c2Cl)n1 [Example 72, N-{3-[5-(2-Amino-4-pyrimidinyl)-2-cyclobutyl-1,3-thiazol-4-yl]-2-chlorophenyl}-2,6-difluorobenzenesulfonamide]	> 7.00	> 7.00	> 7.00	≥ 8.50	6.00 to 7.00	6.00 to 7.00	–	–
CC(C)(C)c1nc(-c2c(F)ccc(NS(=O)(=O)c3cccc(F)c3)c2F)c(-c2ccnc(N)n2)s1 [Example 157]	> 7.00	> 7.00	> 7.00	≥ 8.50	> 7.00	> 7.00	–	–
C[C@@H]1CN(c2nc(-c3cccc(NS(=O)(=O)c4c(F)cccc4F)c3F)c(-c3ccnc(N)n3)s2)C[C@H](C)O1 [Example 143]	6.00 to 7.00	6.00 to 7.00	> 7.00	–	6.00 to 7.00	6.00 to 7.00	3.16 to 31.6	–
CS(=O)(=O)CCNc1nccc(-c2sc(N3CCOCC3)nc2-c2cccc(NS(=O)(=O)c3c(F)cccc3F)c2F)n1 [Example 14, 2,6-Difluoro-N-{2-fluoro-3-[5-(2-{[2-(methylsulfonyl)ethyl]amino}-4-pyrimidinyl)-2-(4-morpholinyl)-1,3-thiazol-4-yl]phenyl}benzenesulfonamide]	> 7.00	> 7.00	> 7.00	≥ 8.50	> 7.00	> 7.00	–	–
CS(=O)(=O)N1CCN(c2nc(-c3cccc(NS(=O)(=O)c4c(F)cccc4F)c3F)c(-c3ccnc(N)n3)s2)CC1 [Example 100, N-(3-{5-(2-Amino-4-pyrimidinyl)-2-[4-(methylsulfonyl)-1-piperazinyl]-1,3-thiazol-4-yl}-2-fluorophenyl)-2,6-difluorobenzenesulfonamide]	6.00 to 7.00	6.00 to 7.00	> 7.00	–	6.00 to 7.00	6.00 to 7.00	3.16 to 31.6	–
CC(C)c1nc(-c2cccc(NS(=O)(=O)c3cc(F)ccc3F)c2F)c(-c2ccnc(NCCCNC(=O)OC(C)(C)C)n2)s1 [Example 193]	6.00 to 7.00	6.00 to 7.00	> 7.00	–	6.00 to 7.00	6.00 to 7.00	3.16 to 31.6	–
CC(C)c1nc(-c2ccc(F)c(NS(=O)(=O)c3cc(F)ccc3F)c2)c(-c2ccnc(NC3CCS(=O)(=O)CC3)n2)s1 [Example 205]	6.00 to 7.00	6.00 to 7.00	> 7.00	–	6.00 to 7.00	6.00 to 7.00	3.16 to 31.6	–
Cc1nccc(-c2sc(C(C)(C)C)nc2-c2c(F)ccc(NS(=O)(=O)c3cccc(F)c3)c2F)n1 [Example 220, N-{3-[2-(1,1-dimethylethyl)-5-(2-methyl-4-pyrimidinyl)-1,3-thiazol-4-yl]-2,4-difluorophenyl}-3-fluorobenzenesulfonamide]	–	> 7.00	–	–	–	> 7.00	3.16 to 31.6	–
CC(C)(C)c1nc(-c2cccc(NS(=O)(=O)c3cc(F)ccc3F)c2F)c(-c2ccnc(CCC(=O)N3CCOCC3)n2)s1 [Example 254, N-[3-(2-(1,1-dimethylethyl)-5-{2-[3-(4-morpholinyl)-3-oxopropyl]-4-pyrimidinyl}-1,3-thiazol-4-yl)-2-fluorophenyl]-2,5-difluorobenzenesulfonamide]	–	> 7.00	–	–	–	6.00 to 7.00	3.16 to 31.6	–
CC(C)CNc1nccc(-c2sc(C(C)C)nc2-c2ccc(F)c(NS(=O)(=O)c3cc(F)ccc3F)c2)n1 [Example 121]	6.00 to 7.00	6.00 to 7.00	> 7.00	–	6.00 to 7.00	6.00 to 7.00	3.16 to 31.6	–
CC(C)CNc1nccc(-c2sc(C(C)C)nc2-c2cccc(NS(=O)(=O)c3ccco3)c2F)n1 [Example 154]	6.00 to 7.00	6.00 to 7.00	> 7.00	≥ 8.50	6.00 to 7.00	6.00 to 7.00	–	–
Nc1nccc(-c2sc(C3CCC3)nc2-c2cccc(NS(=O)(=O)c3cc(F)ccc3F)c2F)n1 [Example 117]	> 7.00	> 7.00	> 7.00	≥ 8.50	> 7.00	> 7.00	–	–
CC(C)c1nc(-c2ccc(F)c(NS(=O)(=O)c3c(F)cccc3F)c2)c(-c2ccnc(NCCOCCO)n2)s1 [Example 166]	6.00 to 7.00	6.00 to 7.00	–	6.00 to 7.50	6.00 to 7.00	6.00 to 7.00	–	–
CS(=O)(=O)N1CCC(Nc2nccc(-c3sc(N4CCOCC4)nc3-c3cccc(NS(=O)(=O)c4cc(F)ccc4F)c3F)n2)CC1 [Example 82, 2,5-Difluoro-N-{2-fluoro-3-[5-(2-{[1-(methylsulfonyl)-4-piperidinyl]amino}-4-pyrimidinyl)-2-(4-morpholinyl)-1,3-thiazol-4-yl]phenyl}benzenesulfonamide]	> 7.00	–	–	–	> 7.00	–	–	> 7.00
CC(C)(C)c1nc(-c2cccc(NS(=O)(=O)c3cc(F)ccc3F)c2F)c(-c2ccnc(NCCO)n2)s1 [Example 210]	> 7.00	> 7.00	> 7.00	≥ 8.50	> 7.00	> 7.00	–	–
CC(C)(C)c1nc(-c2cccc(NS(=O)(=O)c3c(F)cccc3F)c2F)c(-c2ccnc(NC3CCN(S(C)(=O)=O)CC3)n2)s1 [Example 78, N-{3-[2-(1,1-Dimethylethyl)-5-(2-{[1-(methylsulfonyl)-4-piperidinyl]amino}-4-pyrimidinyl)-1,3-thiazol-4-yl]-2-fluorophenyl}-2,6-difluorobenzenesulfonamide]	> 7.00	> 7.00	> 7.00	≥ 8.50	> 7.00	> 7.00	–	–
